“And” between values parts separate entries of the source, which are not always exact repeats. Equal values may be shown once. After the bases stand the sugars from the 5' end (letter, count) and the backbone: PS all phosphorothioate, else s phosphorothioate and o phosphodiester by linkage. Methylation of C is not given here. k = constrained ethyl (cEt); d = 2'-deoxy (DNA)

The series has as its target MALAT1. The note with it: ASO, A431, 0.005 µM.
For CACTTGCCAGTTTAAT (sugars k3 d10 k3, PS), the target mRNA inhibition turned out to be 29%.
Under CAGAAGTCTCGGGCTG (sugars k3 d10 k3, PS) stands 19%.
Under CAGACAAGATTCATGA (sugars k3 d10 k3, PS) stands 19%; under CAGACCAACCCCCAGT (sugars k3 d10 k3, PS), -7%.
In the case of CAGACCTTCTGAACCG (sugars k3 d10 k3, PS), the target mRNA inhibition was 10%.
Under CAGCGGGATCAGAACA (sugars k3 d10 k3, PS) stands 23%; under CAGCTAAGATAGCAGC (sugars k3 d10 k3, PS), 8%.
In the case of CAGCTTCAATCACAAA (sugars k3 d10 k3, PS) it was 33%; in that of CAGCTTCCGCTAAGAT (sugars k3 d10 k3, PS), -11%.
Regarding CAGGAACAAGTCCTAC (sugars k3 d10 k3, PS), the target mRNA inhibition stood at 19%.
Under CAGGCAAATTAATGGC (sugars k3 d10 k3, PS) stands 23%; under CAGTAGGTATAGTTTA (sugars k3 d10 k3, PS), -17%.
In the case of CAGTCCTTTACAGAAG (sugars k3 d10 k3, PS) it was 12%; in that of CAGTCTACAAGTTACA (sugars k3 d10 k3, PS), 27%.
As to CAGTGCTATTTTATCC (sugars k3 d10 k3, PS), the target mRNA inhibition is 78% and 70%.
CAGTTATATTAGGTTC (sugars k3 d10 k3, PS): the target mRNA inhibition is 8%.
In the case of CAGTTCAATACTTTCC (sugars k3 d10 k3, PS) it was 45%; in that of CAGTTGCCGCCAGCCC (sugars k3 d10 k3, PS), -3%; in that of CATAAACAATGCACTA (sugars k3 d10 k3, PS), 14%.
Regarding CATCAAACACTGGTTC (sugars k3 d10 k3, PS), the target mRNA inhibition is 14%.
In the case of CATCAAGGCACTGATC (sugars k3 d10 k3, PS), the target mRNA inhibition is 13%.
As to CATCACCAAATTGCAC (sugars k3 d10 k3, PS), the target mRNA inhibition worked out at 28%.
On to CATGACCCTACTGAAG (sugars k3 d10 k3, PS), for which the target mRNA inhibition came to 2%.
In the case of CATGCAATACTGCAGA (sugars k3 d10 k3, PS) it was 15%; in that of CATGCCAGTTACTCCA (sugars k3 d10 k3, PS), 33%.
Under CATTACCCCAACTAAA (sugars k3 d10 k3, PS) stands 15%; under CCAAAAGCTCTATACT (sugars k3 d10 k3, PS), 12%; under CCAAATCGCACTGGCT (sugars k3 d10 k3, PS), 16%.
In the case of CCAAATTAATGCACTG (sugars k3 d10 k3, PS), the target mRNA inhibition came to 13%.
Under CCAACCCCCAGTTCAA (sugars k3 d10 k3, PS) stands 24%.
Under CCAACTAAGCGAATGG (sugars k3 d10 k3, PS) stands 18%; under CCAACTGCTTGCAGTC (sugars k3 d10 k3, PS), 25%.
In the case of CCAAGAACTAGCACCT (sugars k3 d10 k3, PS) it was -22%; in that of CCAAGCACTCATATGC (sugars k3 d10 k3, PS), 12%; in that of CCAAGCCAAGCCGCCT (sugars k3 d10 k3, PS), 5%.
Turning to CCAATACTTGTCTTAG (sugars k3 d10 k3, PS), the target mRNA inhibition is 64% and 52%.
As for CCACAACAATTTAGAG (sugars k3 d10 k3, PS), the target mRNA inhibition is -27%.
In the case of CCACAAGGATCCAAGC (sugars k3 d10 k3, PS) it was -20%; in that of CCACGGCCCGCACGGA (sugars k3 d10 k3, PS), 6%.
Regarding CCACTTGCCAGTTTAA (sugars k3 d10 k3, PS), the target mRNA inhibition is 29%.
For CCAGTCTACAAGTTAC (sugars k3 d10 k3, PS), the target mRNA inhibition was 50% and 56%.
Regarding CCAGTTCAATACTTTC (sugars k3 d10 k3, PS), the target mRNA inhibition was 13%.
Turning to CCATAACTGATCTGAC (sugars k3 d10 k3, PS), the target mRNA inhibition was 13%.
Under CCATAATTGTAGTTAA (sugars k3 d10 k3, PS) stands 7%; under CCCAAAAGCTCTATAC (sugars k3 d10 k3, PS), 6%.
As for CCCAACACTGAACTAC (sugars k3 d10 k3, PS), the target mRNA inhibition was 19%.
Under CCCAACCGTAACAGGC (sugars k3 d10 k3, PS) stands 22%.
In the case of CCCACAAACTTGCCAT (sugars k3 d10 k3, PS) it was 1%; in that of CCCACAAGGATCCAAG (sugars k3 d10 k3, PS), 9%.
In the case of CCCACCCAGCATTACA (sugars k3 d10 k3, PS) it was 18%; in that of CCCAGCATTACAGTTC (sugars k3 d10 k3, PS), 10%.
CCCAGTTCAATACTTT (sugars k3 d10 k3, PS): the target mRNA inhibition stood at 25%.
In the case of CCCCCCCGCCTCAGTT (sugars k3 d10 k3, PS) it was 15%; in that of CCCCGCCTCAGTTACA (sugars k3 d10 k3, PS), 35%.
As to CCCTTCCCTATATAAG (sugars k3 d10 k3, PS), the target mRNA inhibition turned out to be 5%.
On to CCGAAGACACAGAGAC (sugars k3 d10 k3, PS), for which the target mRNA inhibition amounted to 2%.
Under CCGCACGGAAATTTTT (sugars k3 d10 k3, PS) stands 15%.
In the case of CCGCCTTTGTGAGGGA (sugars k3 d10 k3, PS) it was 14%; in that of CCGTCATGTTTTAGAA (sugars k3 d10 k3, PS), 58% and 61%.
Under CCGTTACGAAAGTCCT (sugars k3 d10 k3, PS) stands 67% and 56%; under CCTACCACTCCCAATT (sugars k3 d10 k3, PS), 21%; under CCTACCACTCTAAGAT (sugars k3 d10 k3, PS), 27%.
CCTAGCTTCATCAAAC (sugars k3 d10 k3, PS): the target mRNA inhibition is -2%.
As to CCTATAAGGACAGCTA (sugars k3 d10 k3, PS), the target mRNA inhibition came out at 15%.
Under CCTCAATGCCTACCGC (sugars k3 d10 k3, PS) stands 17%; under CCTCACAAAACCCCCG (sugars k3 d10 k3, PS), -13%.
As to CCTCAGTACGAAACTC (sugars k3 d10 k3, PS), the target mRNA inhibition stood at 16%.
In the case of CCTCATGCTACTCTTC (sugars k3 d10 k3, PS) it was 54%.
In the case of CCTGAAATCCCCTAGG (sugars k3 d10 k3, PS) it was -4%; in that of CCTGAAGACAGATTAG (sugars k3 d10 k3, PS), 24%.
CCTGCCTTAAAGTTAC (sugars k3 d10 k3, PS): the target mRNA inhibition amounted to 20%.
Consider CCTGGTTAGGTATGAG (sugars k3 d10 k3, PS), for which the target mRNA inhibition came to 19%.
On to CCTTCCGCCGCCTTTG (sugars k3 d10 k3, PS), for which the target mRNA inhibition is 21%.
Under CCTTCTGAACCGGAGC (sugars k3 d10 k3, PS) stands -4%; under CGAAACTCCCCCATTA (sugars k3 d10 k3, PS), 15%.
CGAATTCAGGGTGAGG (sugars k3 d10 k3, PS): the target mRNA inhibition is 68% and 87%.
Take CGACCTCACGGATTTT (sugars k3 d10 k3, PS): the target mRNA inhibition came to 16%.
Under CGACTTGCTCCCAAGA (sugars k3 d10 k3, PS) stands 22%; under CGATTATGGATCATGC (sugars k3 d10 k3, PS), 44% and 57%; under CGCAACTGAGCCCCAG (sugars k3 d10 k3, PS), 18%.
In the case of CGCCTCTTAAAGCACT (sugars k3 d10 k3, PS) it was -12%.
In the case of CGCCTTCCCGTACTTC (sugars k3 d10 k3, PS), the target mRNA inhibition came out at 57%.
Under CGCCTTTGTGAGGGAG (sugars k3 d10 k3, PS) stands -3%.
In the case of CGCTCAAATCCTGATC (sugars k3 d10 k3, PS) it was 23%; in that of CGCTGCGCTTAAGAGG (sugars k3 d10 k3, PS), 10%.
In the case of CGCTTAAGAGGGCAGG (sugars k3 d10 k3, PS) it was 12%.
On to CGCTTGAGATTTGGGC (sugars k3 d10 k3, PS), for which the target mRNA inhibition was found to be 33%.
As to CGGAGAACAACTCGCA (sugars k3 d10 k3, PS), the target mRNA inhibition was -4%.
On to CGGGCTGCAGGCTGCG (sugars k3 d10 k3, PS), for which the target mRNA inhibition was 14%.
With CGGTACACTCCTTCTC (sugars k3 d10 k3, PS), the target mRNA inhibition was 40%.
For CGGTTGAGAAGTGGCA (sugars k3 d10 k3, PS), the target mRNA inhibition was -11%.
With CGTAAACACCCTCATC (sugars k3 d10 k3, PS), the target mRNA inhibition worked out at 32%.
Under CGTGTTGTTTTCTCAG (sugars k3 d10 k3, PS) stands 23%; under CGTTTTTCAGCTTCCA (sugars k3 d10 k3, PS), 7%.
Under CTAACAGCACATCATG (sugars k3 d10 k3, PS) stands 32%; under CTAACATGCAATACTG (sugars k3 d10 k3, PS), 1%.
As for CTAACCCAGTTTGTCA (sugars k3 d10 k3, PS), the target mRNA inhibition amounted to 35%.
With CTAAGACTTTAAGTTC (sugars k3 d10 k3, PS), the target mRNA inhibition was 27%.
Under CTAAGATGCTAGCTTG (sugars k3 d10 k3, PS) stands -26%.

Source of the values: the OligoGym collection.
